In general, IC50 refers to the point on the concentration scale where inhibition reaches its midpoint.

For this assay, the target named is T1, Follicle Stimulating Hormone Receptor (FSHR) (Homo sapiens, UniProt P23945).
T1 construct: HA (N); expressed in transfected cells; host or cells: CHO-K1, transient transfection, pHM6 vector (CMV promoter)
T1 sequence (P23945 18-695): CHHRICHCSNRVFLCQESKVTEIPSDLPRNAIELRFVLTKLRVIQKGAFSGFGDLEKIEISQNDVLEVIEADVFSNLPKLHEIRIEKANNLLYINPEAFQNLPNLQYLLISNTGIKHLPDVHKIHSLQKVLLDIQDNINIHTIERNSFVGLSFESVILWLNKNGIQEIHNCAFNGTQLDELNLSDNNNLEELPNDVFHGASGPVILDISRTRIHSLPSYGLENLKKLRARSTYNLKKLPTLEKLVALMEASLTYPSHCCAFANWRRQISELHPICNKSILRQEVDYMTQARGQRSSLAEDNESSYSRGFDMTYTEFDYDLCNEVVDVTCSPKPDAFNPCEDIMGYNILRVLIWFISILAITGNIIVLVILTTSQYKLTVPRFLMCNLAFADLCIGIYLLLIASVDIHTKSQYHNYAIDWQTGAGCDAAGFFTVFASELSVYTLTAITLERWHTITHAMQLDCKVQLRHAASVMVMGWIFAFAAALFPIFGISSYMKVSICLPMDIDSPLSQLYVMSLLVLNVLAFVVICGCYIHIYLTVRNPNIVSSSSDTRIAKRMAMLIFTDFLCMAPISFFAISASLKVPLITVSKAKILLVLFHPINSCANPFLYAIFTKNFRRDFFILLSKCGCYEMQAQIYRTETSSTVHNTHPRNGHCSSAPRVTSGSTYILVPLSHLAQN
In words: HTRF cAMP agonist assay, FSHR, transiently transfected CHO-K1 cells. It counts as cell-based. The conditions noted are these: CHO-K1 cells transiently expressing human FSHR, read-out: IC50 FSHR LANCE CAMP. (In general: TR-FRET usually uses a lanthanide donor and a delayed reading to cut background.)
With `COc1cc2c(cc1-c1cncc(C(N)=O)c1)-c1c(c(C(=O)N3CCCC(=O)C3)nn1-c1cc(Cl)cc(Cl)c1)CC2` [Compound 8-83], the IC50 stood at 38.9 nM.
Turning to `COc1cc2c(cc1-c1cncc(C(N)=O)c1)-c1c(c(C(=O)N3CCNC[C@H]3C(F)(F)F)nn1-c1cc(Cl)cc(Cl)c1)CC2` [Compound 8-57, 5-[1-(3,5-dichlorophenyl)-7-methoxy-3-[(2S)-2-(trifluoromethyl)piperazine-1-carbonyl]-4,5-dihydrobenzo[g]indazol-8-yl]pyridine-3-carboxamide], the IC50 worked out at 3.89 nM.
As for `COc1cc2c(cc1-c1cncc(C(N)=O)c1)-c1c(c(C(=O)N3CCNC(=O)C3(C)C)nn1-c1ccsc1)CC2` [Compound 12-23, 5-[3-(2,2-dimethyl-3-oxo-piperazine-1-carbonyl)-7-methoxy-1-(3-thienyl)-4,5-dihydrobenzo[g]indazol-8-yl]pyridine-3-carboxamide], the figure is 36.7 nM.
As for `COc1cc2c(cc1-c1cncc(C#N)c1)-c1c(c(C(=O)N(C)C(C)(C)C)nn1-c1cc(Cl)cc(Cl)c1)CC2` [Compound 6-02B, N-tert-butyl-8-(5-cyano-3-pyridyl)-1-(3,5-dichlorophenyl)-7-methoxy-N-methyl-4,5-dihydrobenzo[g]indazole-3-carboxamide], the figure is 31.9 nM.
For `COc1cc2c(cc1-c1cncc(C(N)=O)c1)-c1c(c(C(=O)N3[C@H](C)CNC[C@@H]3C)nn1-c1cc(Cl)cc(Cl)c1)OC2` [Compound 12-02, 5-[1-(3,5-dichlorophenyl)-3-[(2R,6S)-2,6-dimethylpiperazine-1-carbonyl]-7-methoxy-5H-isochromeno[4,3-c]pyrazol-8-yl]pyridine-3-carboxamide], the half-maximal inhibitory concentration (IC50) turned out to be 5.07 nM.
`COc1cc2c(cc1-c1cncc(C(N)=O)c1)-c1c(c(C(=O)N3CC4CCC3CN4C)nn1-c1cc(Cl)cc(Cl)c1)CC2` (stereo not shown) [Compound 8-17]: the IC50 is 115 nM.
On to `COc1cc2c(cc1-c1cncc(C(N)=O)c1)-c1c(c(C(=O)N3CCOCC3(C)C)nn1C1CCCCC1)CC2` [Compound 9-16], for which the half-maximal inhibitory concentration (IC50) was 94.1 nM.
As for `COc1cc2c(cc1-c1cncc(C(N)=O)c1)-c1c(c(C(=O)N3CCC4C3CCN4C)nn1-c1cc(Cl)cc(Cl)c1)CC2` (stereo not shown) [Compound 8-31], the half-inhibitory concentration (IC50) was 1760 nM.
As to `COc1cc2c(cc1-c1cccnc1)-c1c(c(C(=O)N3CCOCC3(C)C)nn1-c1cc(Cl)cc(Cl)c1)CC2` [Compound 9-07], the IC50 amounted to 5.98 nM.
As to `COc1cc2c(cc1-c1cncc(C(N)=O)c1)-c1c(c(C(=O)N3CCOCC3(C)C)nn1-c1cc(F)cc(F)c1)CC2` [Compound 9-18], the half-inhibitory concentration (IC50) was determined as 0.615 nM.
Then `COc1cc2c(cc1-c1cncc(C(N)=O)c1)-c1c(c(C(=O)N3CC4CC(C3)N4)nn1-c1cc(Cl)cc(Cl)c1)CC2` [Compound 8-74, 5-(3-(3,6-diazabicyclo[3.1.1]heptane-3-carbonyl)-1-(3,5-dichlorophenyl)-7-methoxy-4,5-dihydro-1H-benzo[g]indazol-8-yl)nicotinamide], with 453 nM; and `COc1cc2c(cc1-c1cncc(C(N)=O)c1)-c1c(c(C(=O)N3[C@H](C)COC[C@@H]3C)nn1-c1cc(Cl)cc(Cl)c1)CC2` [Compound 8-49], with 2.4 nM.
`COc1cc2c(cc1-c1cncc(C(N)=O)c1)-c1c(c(C(=O)N3CCOC3(C)C)nn1-c1cc(Cl)cc(Cl)c1)CC2` [Compound 8-51, 5-(1-(3,5-dichlorophenyl)-3-(2,2-dimethyloxazolidine-3-carbonyl)-7-methoxy-4,5-dihydro-1H-benzo[g]indazol-8-yl)nicotinamide]: the IC50 was found to be 3.06 nM.
For `COc1cc2c(cc1-c1cncc(C(N)=O)c1)-c1c(c(C(=O)N3CCNC(=O)C3(C)C)nn1-c1cc(Cl)cc(Cl)c1)CC2` [Compound 8-26], the IC50 stood at 16.3 nM.
On to `COc1cc2c(cc1-c1cncc(C(N)=O)c1)-c1c(c(C(=O)N3CCNC(=O)C3(C)C)nn1-c1cc(Cl)cc(Cl)c1)OC2` [Compound 12-18], for which the half-inhibitory concentration (IC50) amounted to 66.8 nM.
As for `COc1cc2c(cc1-c1cncc(C(N)=O)c1)-c1c(c(C(=O)N3CCCC(=O)C3(C)C)nn1-c1cc(Cl)cc(Cl)c1)CC2` [Compound 8-67, 5-(1-(3,5-dichlorophenyl)-3-(2,2-dimethyl-3-oxopiperidine-1-carbonyl)-7-methoxy-4,5-dihydro-1H-benzo[g]indazol-8-yl)nicotinamide], the figure is 4.24 nM; as for `CC1(C)C(=O)NCCN1C(=O)c1nn(-c2ccccn2)c2c1CCc1ccc(-c3cccnc3)cc1-2` [Compound 13-01, 3,3-dimethyl-4-[1-(2-pyridyl)-8-(3-pyridyl)-4,5-dihydrobenzo[g]indazole-3-carbonyl]piperazin-2-one], 6740 nM; as for `COc1cc2c(cc1-c1cncc(C(N)=O)c1)-c1c(c(C(=O)N3CCN(CC(=O)O)CC3(C)C)nn1-c1cc(Cl)cc(Cl)c1)CC2` [Compound 8-64], 3400 nM.
As for `COc1cc2c(cc1-c1ccc(=N)[nH]c1)-c1c(c(C(=O)N3CCOCC3(C)C)nn1-c1cc(F)cc(F)c1)CC2` [Compound 15-10], the figure is 21.1 nM.
With `COc1cc(C(N)=O)cc(-c2cc3c(cc2OC)CCc2c(C(=O)N(C)C(C)(C)C)nn(-c4cc(Cl)cc(Cl)c4)c2-3)n1` [Compound 11-01], the 50% inhibitory concentration (IC50) came to 12.5 nM.
In the case of `COc1cc2c(cc1-c1ccn(C)n1)-c1c(c(C(=O)N3CCOCC3(C)C)nn1-c1cc(Cl)cc(Cl)c1)OC2` [Compound 2-05, [1-(3,5-dichlorophenyl)-7-methoxy-8-(1-methylpyrazol-3-yl)-5H-isochromeno[4,3-c]pyrazol-3-yl]-(3,3-dimethylmorpholin-4-yl)methanone], the half-inhibitory concentration (IC50) came to 638 nM.
On to `COc1cc2c(cc1-c1cncc(C(N)=O)c1)-c1c(c(C(=O)N3CCCC3C)nn1-c1cc(Cl)cc(Cl)c1)CC2` (stereo not shown) [Compound 8-38], for which the IC50 was determined as 9.16 nM.
As for `COc1cc2c(cc1-c1cncc(C(N)=O)c1)-c1c(c(C(=O)N3CCN(CCC(=O)O)CC3(C)C)nn1-c1cc(Cl)cc(Cl)c1)CC2` [Compound 8-65], the figure is 1320 nM; as for `COc1cc2c(cc1-c1cncc(C(N)=O)c1)-c1c(c(C(=O)N(C)C3CCS(=O)(=O)C3)nn1-c1cc(Cl)cc(Cl)c1)CC2` (stereo not shown) [Compound 8-46], 177 nM; as for `COc1cc2c(cc1-c1cncc(C(N)=O)c1)-c1c(c(C(=O)N3CCOCC3(C)C)nn1-c1cccnn1)CC2` [Compound 10-07], 22.5 nM.
On to `COc1cc(Cl)cc(-n2nc(C(=O)N3CCOCC3(C)C)c3c2-c2cc(-c4cncc(C(N)=O)c4)c(OC)cc2CC3)c1` [Compound 9-20], for which the 50% inhibitory concentration (IC50) came to 3.85 nM.
For the compound `COc1cc2c(cc1-c1cncc(C(N)=O)c1)-c1c(c(C(=O)N3CCNC(=O)C3(C)C)nn1CC(C)C)CC2` [Compound 14-03], the IC50 was 13800 nM.
With `CCN(CC)C(=O)c1nn(-c2cc(Cl)cc(Cl)c2)c2c1CCc1cc(OC)c(-c3cncc(C(N)=O)c3)cc1-2` [Compound 8-35], the 50% inhibitory concentration (IC50) was determined as 3.99 nM.

Values taken from patent publication US20260008783A1, “MODULATORS OF FSHR AND USES THEREOF” (Celmatix Inc., priority 2022, published 2026).
